Source: ChEMBL document CHEMBL3885861, “Open TG-GATES”

Organism: Rattus norvegicus
Assay: Open TG-GATES - Regimen: Single
Assay type: toxicity, organism-based, Sprague-Dawley
Parameters: regimen Single, gender Male, age 6 weeks
Settings: in vivo, po, 1000 mg/kg, route gavage, dose level High; for APTT / Bas / Eos / Fbg / Hb / Ht / Lym / MCH / MCHC / MCV / Mono / Neu / PT / Plat / RBC / Ret / WBC: tissue Blood; for KIDNEY_L / KIDNEY_R / KIDNEY_TOTAL: tissue Kidney; for LIVER: tissue Liver; for A/G / ALP / ALT / AST / BUN / CRE / Ca / Cl / DBIL / GLC / IP / K / LDH / Na / PL / RALB / TBIL / TC / TG / TP / gamma-GTP: tissue Plasma

In the case of `CC(S)C(=O)NCC(=O)O` (configuration not stated) [TIOPRONIN], the TERMINAL_BW (3 h) is reported as 213.5 g, the APTT (3 h) is reported as 23 s and the Bas (3 h) is reported as 0%. The Eos (3 h) was 0.4%, the Fbg (3 h) was 307.8 mg/dL and the Hb (3 h) was 13 g/dL. For the same compound, the Ht (3 h) was 40.2%, the Lym (3 h) was 75.8% and the MCH (3 h) was 20.5 pg. It also gave an MCHC (3 h) of 32.3%, an MCV (3 h) of 63.5 fL and a Mono (3 h) of 4%. It also gave a Neu (3 h) of 18%, a PT (3 h) of 17.1 s and a Plat (3 h) of 120.4 x10_4/uL. The RBC (3 h) was 633.8 x10_4/ul, the Ret (3 h) was 8% and the WBC (3 h) was 75.4 x10_2/uL. It also gave a KIDNEY_L (3 h) of 0.9 g, a KIDNEY_R (3 h) of 0.9 g and a KIDNEY_TOTAL (3 h) of 1.8 g. It also gave an LIVER (3 h) of 9.2 g, an A/G (3 h) of 1.1 and an ALP (3 h) of 1422.8 IU/L. For the same compound, the ALT (3 h) was 95.4 IU/L, the AST (3 h) was 90 IU/L and the BUN (3 h) was 11.2 mg/dL. It also gave a CRE (3 h) of 0.1 mg/dL, a Ca (3 h) of 10.4 mg/dL and a Cl (3 h) of 106.8 meq/L. It also gave a DBIL (3 h) of 0 mg/dL, a GLC (3 h) of 199.4 mg/dL and an IP (3 h) of 9.1 mg/dL. For the same compound, the K (3 h) was 4 meq/L, the LDH (3 h) was 232.2 IU/L and the Na (3 h) was 141.4 meq/L. The PL (3 h) was 115.4 mg/dL, the RALB (3 h) was 2.8 g/dL and the TBIL (3 h) was 0.008 mg/dL. For the same compound, the TC (3 h) was 69 mg/dL, the TG (3 h) was 52.8 mg/dL and the TP (3 h) was 5.3 g/dL. It also gave a gamma-GTP (3 h) of 1.8 IU/L, a TERMINAL_BW (6 h) of 211.1 g and an APTT (6 h) of 23.4 s. The Bas (6 h) was 0%, the Eos (6 h) was 0.4% and the Fbg (6 h) was 291.4 mg/dL. It also gave a Hb (6 h) of 12.9 g/dL, a Ht (6 h) of 39.5% and a Lym (6 h) of 76.2%. For the same compound, the MCH (6 h) was 20.3 pg, the MCHC (6 h) was 32.6% and the MCV (6 h) was 62.4 fL. For the same compound, the Mono (6 h) was 3.2%, the Neu (6 h) was 18.6% and the PT (6 h) was 17.6 s. The Plat (6 h) was 120 x10_4/uL, the RBC (6 h) was 632.6 x10_4/ul and the Ret (6 h) was 8.1%. It also gave a WBC (6 h) of 99 x10_2/uL, a KIDNEY_L (6 h) of 0.9 g and a KIDNEY_R (6 h) of 0.9 g. It also gave a KIDNEY_TOTAL (6 h) of 1.9 g, an LIVER (6 h) of 8.2 g and an A/G (6 h) of 1.2. The ALP (6 h) was 1452 IU/L, the ALT (6 h) was 77.2 IU/L and the AST (6 h) was 78 IU/L. For the same compound, the BUN (6 h) was 9 mg/dL, the CRE (6 h) was 0.1 mg/dL and the Ca (6 h) was 10.3 mg/dL. For the same compound, the Cl (6 h) was 107 meq/L, the DBIL (6 h) was 0.002 mg/dL and the GLC (6 h) was 196 mg/dL. It also gave an IP (6 h) of 9.3 mg/dL, a K (6 h) of 4.1 meq/L and an LDH (6 h) of 147.4 IU/L. It also gave a Na (6 h) of 140.4 meq/L, a PL (6 h) of 100.4 mg/dL and an RALB (6 h) of 2.8 g/dL. The TBIL (6 h) was 0.016 mg/dL, the TC (6 h) was 59.8 mg/dL and the TG (6 h) was 31.6 mg/dL. The TP (6 h) was 5.2 g/dL, the gamma-GTP (6 h) was 1.8 IU/L and the TERMINAL_BW (9 h) was 211.2 g. For the same compound, the APTT (9 h) was 23.6 s, the Bas (9 h) was 0% and the Eos (9 h) was 0.2%. For the same compound, the Fbg (9 h) was 271.2 mg/dL, the Hb (9 h) was 12.6 g/dL and the Ht (9 h) was 39.2%. It also gave a Lym (9 h) of 74.6%, an MCH (9 h) of 20.3 pg and an MCHC (9 h) of 32%. The MCV (9 h) was 63.2 fL, the Mono (9 h) was 1.4% and the Neu (9 h) was 23.4%. It also gave a PT (9 h) of 17.6 s, a Plat (9 h) of 123.5 x10_4/uL and an RBC (9 h) of 621.6 x10_4/ul. It also gave a Ret (9 h) of 7.4%, a WBC (9 h) of 71.9 x10_2/uL and a KIDNEY_L (9 h) of 1 g. It also gave a KIDNEY_R (9 h) of 1 g, a KIDNEY_TOTAL (9 h) of 1.9 g and an LIVER (9 h) of 7.8 g. The A/G (9 h) was 1.2, the ALP (9 h) was 1385.8 IU/L and the ALT (9 h) was 69.4 IU/L. For the same compound, the AST (9 h) was 80.6 IU/L, the BUN (9 h) was 9.4 mg/dL and the CRE (9 h) was 0.1 mg/dL. It also gave a Ca (9 h) of 10.5 mg/dL, a Cl (9 h) of 106.8 meq/L and a DBIL (9 h) of 0.006 mg/dL. The GLC (9 h) was 188.2 mg/dL, the IP (9 h) was 9.1 mg/dL and the K (9 h) was 4.3 meq/L. It also gave an LDH (9 h) of 160.4 IU/L, a Na (9 h) of 140.8 meq/L and a PL (9 h) of 98.6 mg/dL. It also gave an RALB (9 h) of 2.8 g/dL, a TBIL (9 h) of 0.018 mg/dL and a TC (9 h) of 55.6 mg/dL. The TG (9 h) was 40.4 mg/dL, the TP (9 h) was 5.2 g/dL and the gamma-GTP (9 h) was 1.2 IU/L. It also gave a TERMINAL_BW (24 h) of 228 g, an APTT (24 h) of 22.3 s and a Bas (24 h) of 0%. For the same compound, the Eos (24 h) was 1%, the Fbg (24 h) was 307.2 mg/dL and the Hb (24 h) was 12.8 g/dL. The Ht (24 h) was 39.1%, the Lym (24 h) was 76.8% and the MCH (24 h) was 20.2 pg. It also gave an MCHC (24 h) of 32.6%, an MCV (24 h) of 62.1 fL and a Mono (24 h) of 3.2%. It also gave a Neu (24 h) of 18%, a PT (24 h) of 16.2 s and a Plat (24 h) of 115.2 x10_4/uL. The RBC (24 h) was 630.2 x10_4/ul, the Ret (24 h) was 7.7% and the WBC (24 h) was 117.2 x10_2/uL. The KIDNEY_L (24 h) was 1 g, the KIDNEY_R (24 h) was 1 g and the KIDNEY_TOTAL (24 h) was 2 g. For the same compound, the LIVER (24 h) was 10.2 g, the A/G (24 h) was 1.2 and the ALP (24 h) was 1503 IU/L. The ALT (24 h) was 47 IU/L, the AST (24 h) was 76.6 IU/L and the BUN (24 h) was 16.2 mg/dL. The CRE (24 h) was 0.2 mg/dL, the Ca (24 h) was 10.8 mg/dL and the Cl (24 h) was 107.4 meq/L. It also gave a DBIL (24 h) of 0 mg/dL, a GLC (24 h) of 181.6 mg/dL and an IP (24 h) of 7.4 mg/dL. The K (24 h) was 4.6 meq/L, the LDH (24 h) was 176.2 IU/L and the Na (24 h) was 142.6 meq/L. It also gave a PL (24 h) of 138.8 mg/dL, an RALB (24 h) of 2.9 g/dL and a TBIL (24 h) of 0.008 mg/dL. It also gave a TC (24 h) of 76.8 mg/dL, a TG (24 h) of 117 mg/dL and a TP (24 h) of 5.4 g/dL. It also gave a gamma-GTP (24 h) of 1.4 IU/L.
